Tests used:
[1] = tested on: '2PH seedless' lemon trees; test: Fruit drop, '2PH seedless' lemon, Mpumalanga (Example 8); type: in vivo; settings: for # Fruit per Tree / % Change in # Fruit per Tree: Excelero SL; for % Change in # Fruit per Tree: vs untreated control
Source text: Excelero™ SL was applied to mature ‘2PH seedless’ lemon trees in a commercial orchard near Mpumalanga, South Africa. The experiment consisted of a completely randomized design. S-ABA was applied at 20, 40 and 80 ppm in the form of Excelero™ SL and compared to an untreated control. All treatments were applied with Villa 51® at a rate of 6 milliliters per 100 liters of water. Treatments were applied 14, 21 and 28 days after 100% petal drop (“DAP”). See Results in Table 8, below.

[2] = tested on: 'Midknight Valencia' sweet orange trees; test: Fruit drop after foliar spray, 'Midknight Valencia' sweet orange, Porterville (Example 1); type: in vivo; settings: for # Fruit per Tree / % Change in # Fruit per Tree: ProTone SG, 28 days after 100% petal drop; for % Change in # Fruit per Tree: vs untreated control
Description: ProTone™ SG was applied to mature ‘Midknight Valencia’ sweet orange trees in a commercial orchard near Porterville (33°08′37.54″S, 18°59′35.90″E) in the Western Cape Province of South Africa. The experiment consisted of a completely randomized design and consisted of 10 single-tree replicates. S-ABA was applied as a foliar spray at 75, 150 and 300 parts per million (“ppm”) and compared to an untreated control (only water) at 2 liters per tree. All treatments were applied with a non-ionic wetting agent (Villa 51® having the active ingredient isotridecanol and available from Villa Crop Protection (Pty) Ltd) at a rate of 6 milliliters per 100 liters of water. Treatments were applied 28 days after 100% petal drop on 31 Oct. 2019. See Results in Table 1, below.

(S)-abscisic acid [S-ABA]
effect on fruit drop as compared to untreated control ([1]; 20, 40 and 80 ppm at each of 14, 21 and 28 days after 100% petal drop): reduced fruit drop | # Fruit per Tree ([1]; 20 ppm @ 14 DAP): 107 | % Change in # Fruit per Tree ([1]; 20 ppm @ 14 DAP): 23% | # Fruit per Tree ([1]; 20 ppm @ 21 DAP): 105 | % Change in # Fruit per Tree ([1]; 20 ppm @ 21 DAP): 21% | # Fruit per Tree ([1]; 20 ppm @ 28 DAP): 112 | % Change in # Fruit per Tree ([1]; 20 ppm @ 28 DAP): 29% | # Fruit per Tree ([1]; 40 ppm @ 14 DAP): 114 | % Change in # Fruit per Tree ([1]; 40 ppm @ 14 DAP): 31% | # Fruit per Tree ([1]; 40 ppm @ 21 DAP): 121 | % Change in # Fruit per Tree ([1]; 40 ppm @ 21 DAP): 39% | # Fruit per Tree ([1]; 40 ppm @ 28 DAP): 119 | % Change in # Fruit per Tree ([1]; 40 ppm @ 28 DAP): 37% | # Fruit per Tree ([1]; 80 ppm @ 14 DAP): 109 | % Change in # Fruit per Tree ([1]; 80 ppm @ 14 DAP): 25% | # Fruit per Tree ([1]; 80 ppm @ 21 DAP): 117 | % Change in # Fruit per Tree ([1]; 80 ppm @ 21 DAP): 34% | # Fruit per Tree ([1]; 80 ppm @ 28 DAP): 125 | % Change in # Fruit per Tree ([1]; 80 ppm @ 28 DAP): 44% | effect on fruit drop as compared to untreated control ([2]; 75 and 150 ppm): reduced fruit drop | # Fruit per Tree ([2]; 75 ppm foliar spray): 413 | % Change in # Fruit per Tree ([2]; 75 ppm foliar spray): 11% | # Fruit per Tree ([2]; 150 ppm foliar spray): 444 | % Change in # Fruit per Tree ([2]; 150 ppm foliar spray): 20% | effect on fruit drop as compared to untreated control ([2]; 300 ppm): increasing fruit drop | # Fruit per Tree ([2]; 300 ppm foliar spray): 351 | % Change in # Fruit per Tree ([2]; 300 ppm foliar spray): −5%

Reference: patent publication US20250151727A1, “(S)-ABSCISIC ACID FOR REDUCING FRUIT DROP” (Valent BioSciences LLC, priority 2023, published 2025)
